This passage reports IC50 results from patent US10787444B2, “Compounds for the modulation of myc activity” (Syros Pharmaceuticals, Inc., priority 2015, dated 2020).

Read-outs that look alike come from different tables or passages of the source.

The subject of experiment [1] is human small lung cancer cell line H2171. The experiment is described as follows: Cell Viability Assay (ATPlite). It is filed as cell-based. The following applies: read-out: H2171 Activity. The method, boiled down: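 H2171 cells were plated at 20,000 cells/mL and dosed immediately by pin transfer with a 10-point dose series in DMSO. After three days at 37° C, ATPlite luminescence served as the viability readout.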

For a further experiment, the target named is T1, c-Myc/Max/Ebox DNA (Homo sapiens, UniProt P01106).
T1 construct: his6 (cleaved yes)
Briefly: c-Myc/Max/Ebox DNA AlphaScreen Assay. The note with it: Table 2, compounds of FIG. 1, calculated IC50 class. The class given is binding. In outline: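 Compounds were preincubated with free c-Myc (20 nM), biotinylated single-Ebox DNA (10 nM) and Ni acceptor beads before his6-Max (5 nM) and streptavidin donor beads were added. Buffer was 50 mM HEPES pH 8.0, 150 mM NaCl, BSA, Tween20, glycogen and DTT, with DMSO ≤2%. After 2 h incubation, AlphaScreen signal was read at 680 nm excitation and 520–620 nm emission.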

[2] abbreviates: Homo sapiens, NCI-H2171, 72 h, Table 2, compounds of FIG. 1, H2171 cells, three days, ATPlite, calculated IC50 class.
Setting [3] is: Table 2, compounds of FIG. 1, H2171 cells, three days, ATPlite, calculated IC50 class.

T1 sequence (P01106 whole entry): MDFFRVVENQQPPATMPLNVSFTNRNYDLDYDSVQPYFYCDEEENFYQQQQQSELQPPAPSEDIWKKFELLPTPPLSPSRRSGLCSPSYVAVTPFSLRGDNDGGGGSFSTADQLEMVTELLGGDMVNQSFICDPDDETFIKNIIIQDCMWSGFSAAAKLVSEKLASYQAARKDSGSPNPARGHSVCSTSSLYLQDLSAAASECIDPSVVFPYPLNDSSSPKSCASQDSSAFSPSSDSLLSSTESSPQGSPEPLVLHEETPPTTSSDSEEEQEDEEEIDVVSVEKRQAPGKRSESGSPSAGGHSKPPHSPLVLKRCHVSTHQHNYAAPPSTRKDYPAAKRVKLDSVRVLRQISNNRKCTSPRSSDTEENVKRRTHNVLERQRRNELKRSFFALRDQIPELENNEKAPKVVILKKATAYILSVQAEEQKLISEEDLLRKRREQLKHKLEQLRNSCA

Take `CC(C)NCCC(=O)Nc1sc2c(c1-c1nc3cc(C(=O)Nc4ccccc4)ccc3s1)CCNC2` [Compound 505, 2-(2-(3-(Isopropylamino)propanamido)-4,5,6,7-tetrahydrothieno[2,3-c]pyridin-3-yl)-N-phenylbenzo[d]thiazole-5-carboxamide]: the IC50 in experiment [1] (setting [2]) was under 0.3 µM; on c-Myc/Max/Ebox DNA, 1 to 10 µM.
Regarding `COCCNCCC(=O)Nc1sc2c(c1-c1nc3ccccc3s1)CC(C)NC2C` (stereo not drawn) [Compound 506, N-(3-(Benzo[d]thiazol-2-yl)-5,7-dimethyl-4,5,6,7-tetrahydrothieno[2,3-c]pyridin-2-yl)-3-((2-methoxyethyl)amino)propanamide], the IC50 in experiment [1] (setting [3]) was 1 to 10 µM; at c-Myc/Max/Ebox DNA it was 0.3 to 1 µM.
Turning to `COCCNCCC(=O)Nc1sc2c(c1-c1nc3ccccc3s1)CC(C)NC2C` (stereo not drawn) [Compound 507, N-(3-(Benzo[d]thiazol-2-yl)-5,7-dimethyl-4,5,6,7-tetrahydrothieno[2,3-c]pyridin-2-yl)-3-((2-methoxyethyl)amino)propanamide], the IC50 in experiment [1] (setting [3]) was under 0.3 µM; on c-Myc/Max/Ebox DNA it was 0.3 to 1 µM.
Regarding `CC(C)NCCC(=O)Nc1sc2c(c1-c1nc3cc(C(=O)Nc4cccnc4)ccc3s1)CCNC2` [Compound 510, 2-(2-(3-(Isopropylamino)propanamido)-4,5,6,7-tetrahydrothieno[2,3-c]pyridin-3-yl)-N-(pyridin-3-yl)benzo[d]thiazole-5-carboxamide], the figures for the IC50 (in experiment [1] (setting [2]); on c-Myc/Max/Ebox DNA) were under 0.3 µM and 0.3 to 1 µM, respectively.
`COCCNCCC(=O)Nc1sc2c(c1-c1nc3cc(-c4ccncc4)ccc3s1)C[C@H](C)N[C@@H]2C` [Compound 532, N-((5S,7R)-5,7-dimethyl-3-(5-(pyridin-4-yl)benzo[d]thiazol-2-yl)-4,5,6,7-tetrahydrothieno[2,3-c]pyridin-2-yl)-3-((2-methoxyethyl)amino)propanamide]: the IC50 is 0.3 to 1 µM in experiment [1] (setting [2]) and over 10 µM on c-Myc/Max/Ebox DNA.
Turning to `COCCNCCC(=O)Nc1sc2c(c1-c1nc3cc(-c4cccnc4)ccc3s1)CC(C)NC2C` (stereo not drawn) [Compound 533, N-(5,7-Dimethyl-3-(5-(pyridin-3-yl)benzo[d]thiazol-2-yl)-4,5,6,7-tetrahydrothieno[2,3-c]pyridin-2-yl)-3-((2-methoxyethyl)amino)propanamide], the IC50 in experiment [1] (setting [2]) was 0.3 to 1 µM; at c-Myc/Max/Ebox DNA it was 1 to 10 µM.
As to `CCCNCCC(=O)Nc1sc2c(c1-c1nc3ccccc3s1)CCN(C(C)C)C2` [Compound 539, N-(3-(Benzo[d]thiazol-2-yl)-6-isopropyl-4,5,6,7-tetrahydrothieno[2,3-c]pyridin-2-yl)-3-(propylamino)propanamide], the IC50 (in experiment [1] (setting [3]); on c-Myc/Max/Ebox DNA) was 0.3 to 1 µM in each case.
Consider `CCNCCC(=O)Nc1sc2c(c1-c1nc3ccccc3s1)CCN(C(C)C)C2` [Compound 540, N-(3-(Benzo[d]thiazol-2-yl)-6-isopropyl-4,5,6,7-tetrahydrothieno[2,3-c]pyridin-2-yl)-3-(ethylamino)propanamide], for which the IC50 in experiment [1] (Homo sapiens, NCI-H2171, 72 h) was under 0.3 µM; on c-Myc/Max/Ebox DNA, 0.3 to 1 µM.
For the molecule `CC(C)N1CCc2c(sc(NC(=O)CCN3CCC3)c2-c2nc3ccccc3s2)C1` [Compound 541, 3-(Azetidin-1-yl)-N-(3-(benzo[d]thiazol-2-yl)-6-isopropyl-4,5,6,7-tetrahydrothieno[2,3-c]pyridin-2-yl)propanamide], the IC50 was under 0.3 µM in experiment [1] (Homo sapiens, NCI-H2171, 72 h) and 0.3 to 1 µM at c-Myc/Max/Ebox DNA.
Turning to `CC(C)CNCCC(=O)Nc1sc2c(c1-c1nc3ccccc3s1)CCN(C(C)C)C2` [Compound 552, N-(3-(Benzo[d]thiazol-2-yl)-6-isopropyl-4,5,6,7-tetrahydrothieno[2,3-c]pyridin-2-yl)-3-(isobutylamino)propanamide], the IC50 (in experiment [1] (setting [2]); on c-Myc/Max/Ebox DNA) was under 0.3 µM in each case.
For `CCC(C)NCCC(=O)Nc1sc2c(c1-c1nc3cc4c(cc3s1)OCO4)CCNC2` (stereo not drawn) [Compound 555, N-(3-([1,3]Dioxolo[4′,5′:4,5]benzo[1,2-d]thiazol-6-yl)-4,5,6,7-tetrahydrothieno[2,3-c]pyridin-2-yl)-3-(sec-butylamino)propanamide], the IC50 in experiment [1] (setting [2]) was under 0.3 µM; in experiment [1] (Table 2, compounds of FIG. 1, H2171 cells, three days, ATPlite, calculated IC50 class, listed as 116), 1 to 10 µM; at c-Myc/Max/Ebox DNA, under 0.3 µM; at c-Myc/Max/Ebox DNA (listed as 116) it was 1 to 10 µM.
Turning to `COCCNCCC(=O)Nc1sc2c(c1-c1nc3cc4c(cc3s1)OCO4)CCNC2` [Compound 556, N-(3-([1,3]Dioxolo[4′,5′:4,5]benzo[1,2-d]thiazol-6-yl)-4,5,6,7-tetrahydrothieno[2,3-c]pyridin-2-yl)-3-((2-methoxyethyl)amino)propanamide], the IC50 (in experiment [1] (setting [2]); on c-Myc/Max/Ebox DNA) was under 0.3 µM in each case.
Regarding `COCCNCCC(=O)Nc1sc2c(c1-c1nc3cc(F)ccc3s1)CCN[C@@H]2C` [Compound 557], the IC50 (in experiment [1] (setting [2]); on c-Myc/Max/Ebox DNA) was under 0.3 µM each time.
`CCC(C)NCCC(=O)Nc1sc2c(c1-c1nc3cc4c(cc3s1)OCO4)CCN(C(C)C)C2` (stereo not drawn) [Compound 563, N-(3-([1,3]Dioxolo[4′,5′:4,5]benzo[1,2-d]thiazol-6-yl)-6-isopropyl-4,5,6,7-tetrahydrothieno[2,3-c]pyridin-2-yl)-3-(sec-butylamino)propanamide]: the IC50 (in experiment [1] (setting [2]); on c-Myc/Max/Ebox DNA) was under 0.3 µM each time.
Turning to `COCCNCCC(=O)Nc1sc2c(c1-c1nc3cc(F)ccc3s1)C[C@H](C)NC2` [Compound 571], the IC50 (in experiment [1] (setting [2]); at c-Myc/Max/Ebox DNA) was under 0.3 µM in each case.
In the case of `CCN(C)CCC(=O)Nc1sc2c(c1-c1nc3ccccc3s1)CCN(C(C)C)C2` [Compound 572], the IC50 was under 0.3 µM in experiment [1] (setting [2]) and 0.3 to 1 µM on c-Myc/Max/Ebox DNA.
As to `O=C(CCN[C@@H]1C[C@H]2CNC[C@H]2C1)Nc1sc2c(c1-c1nc3ccccc3s1)CCNC2` [Compound 573, N-(3-(Benzo[d]thiazol-2-yl)-4,5,6,7-tetrahydrothieno[2,3-c]pyridin-2-yl)-3-(((3aR,5s,6aS)-octahydrocyclopenta[c]pyrrol-5-yl)amino)propanamide], the IC50 (in experiment [1] (setting [2]); on c-Myc/Max/Ebox DNA) was 0.3 to 1 µM in each case.
Regarding `CC[C@@H](C)NCCC(=O)Nc1sc2c(c1-c1nc3cc(C(F)(F)F)ccc3s1)CCN(C(C)C)C2` [Compound 574, (R)-3-(sec-butylamino)-N-(6-isopropyl-3-(5-(trifluoromethyl)benzo[d]thiazol-2-yl)-4,5,6,7-tetrahydrothieno[2,3-c]pyridin-2-yl)propanamide], the IC50 (in experiment [1] (setting [2]); on c-Myc/Max/Ebox DNA) was under 0.3 µM throughout.
Turning to `COCCNCCC(=O)Nc1sc2c(c1-c1nc3cc(C(F)(F)F)ccc3s1)CCN(C(C)C)C2` [Compound 575, N-(6-Isopropyl-3-(5-(trifluoromethyl)benzo[d]thiazol-2-yl)-4,5,6,7-tetrahydrothieno[2,3-c]pyridin-2-yl)-3-((2-methoxyethyl)amino) propanamide], the IC50 (in experiment [1] (setting [2]); at c-Myc/Max/Ebox DNA) was under 0.3 µM in each case.
`CCC(C)NCCC(=O)Nc1sc2c(c1-c1nc3cc(C)c(C)cc3s1)CCNC2` (stereo not drawn) [Compound 576, 3-(sec-Butylamino)-N-(3-(5,6-dimethylbenzo[d]thiazol-2-yl)-4,5,6,7-tetrahydrothieno[2,3-c]pyridin-2-yl)propanamide]: the IC50 (in experiment [1] (setting [2]); at c-Myc/Max/Ebox DNA) was under 0.3 µM each time.
Turning to `CCC(C)N(C)CCC(=O)Nc1sc2c(c1-c1nc3ccccc3s1)CCN(C(C)C)C2` (stereo not drawn) [Compound 577, N-(3-(benzo[d]thiazol-2-yl)-6-isopropyl-4,5,6,7 tetrahydrothieno[2,3-c]pyridin-2-yl)-3-(sec-butyl(methyl)amino)propanamide], the IC50 (in experiment [1] (setting [3]); at c-Myc/Max/Ebox DNA) was over 10 µM each time.
For the molecule `CC[C@H](C)NCCC(=O)Nc1sc2c(c1-c1nc3cc(C(F)(F)F)ccc3s1)CCN(C(C)C)C2` [Compound 578, (S)-3-(sec-butylamino)-N-(6-isopropyl-3-(5-(trifluoromethyl)benzo[d]thiazol-2-yl)-4,5,6,7-tetrahydrothieno[2,3-c]pyridin-2-yl)propanamide], the IC50 in experiment [1] (setting [2]) is under 0.3 µM; at c-Myc/Max/Ebox DNA it was 0.3 to 1 µM.
For the molecule `CC[C@H](C)NCCC(=O)Nc1sc2c(c1-c1nc3cc(-c4ccncc4)ccc3s1)CCNC2` [Compound 579, (S)-3-(sec-butylamino)-N-(3-(5-(pyridin-4-yl)benzo[d]thiazol-2-yl)-4,5,6,7-tetrahydrothieno[2,3-c]pyridin-2-yl)Propanamide], the IC50 (in experiment [1] (setting [2]); at c-Myc/Max/Ebox DNA) was under 0.3 µM in each case.
For `C=Cc1cccc2sc(-c3c(NC(=O)CCNCCOC)sc4c3CCNC4)nc12` [Compound 583, 3-(2-methoxyethylamino)-N-(3-(4-vinylbenzo[d]thiazol-2-yl)-4,5,6,7-tetrahydrothieno[2,3-c]pyridin-2-yl)propanamide bis(2,2,2-trifluoroacetate)], the IC50 (in experiment [1] (setting [2]); at c-Myc/Max/Ebox DNA) was under 0.3 µM each time.
Turning to `CC[C@H](C)NCCC(=O)Nc1sc2c(c1-c1nc3cc(-c4ccncc4)ccc3s1)CCN(CC)C2` [Compound 588, (S)-3-(sec-butylamino)-N-(6-ethyl-3-(5-(pyridin-4-yl)benzo[d]thiazol-2-yl)-4,5,6,7-tetrahydrothieno[2,3-c]pyridin-2-yl)propanamide], the IC50 (in experiment [1] (setting [2]); on c-Myc/Max/Ebox DNA) was under 0.3 µM throughout.
`CC[C@H](C)NCCC(=O)Nc1sc2c(c1-c1nc3cc(-c4ccncc4)ccc3s1)C[C@@H](C)NC2` [Compound 589, 3-(((S)-sec-butyl)amino)-N—((R)-5-methyl-3-(5(pyridin-4-yl)benzo[d]thiazol-2-yl)-4,5,6,7-tetrahydrothieno[2,3-c]pyridin-2-yl)propanamide]: the IC50 (in experiment [1] (setting [2]); at c-Myc/Max/Ebox DNA) was under 0.3 µM each time.
